In ChEMBL document CHEMBL4507257, “Data for DCP probe ABT-100” (2021):
Active and inactive are the calls of the source. The calls are words filed in the database; no cut-off is given here.

How the values were obtained:
[1] = target: Muscarinic acetylcholine receptor M2 (Homo sapiens) (UniProt P08172); conditions: Compound concentration 10.0 uM
[2] = target: Mu-type opioid receptor (Homo sapiens) (UniProt P35372); assay: Mu (h) Ligand binding assay; conditions: Compound concentration 10.0 uM
[3] = target: Calcium-activated potassium channel (Homo sapiens) (UniProt Q92952+Q9UGI6+Q12791+O15554+Q9H2S1+A8MYU2); assay: K+ channel (Ca2+ - dependent) Ligand binding assay; format: protein assay; conditions: Compound concentration 10.0 uM
[4] = target: T1, 5-hydroxytryptamine receptor 3A (Homo sapiens) (UniProt P46098); assay: 5-HT3 (h) Ligand binding assay; conditions: Compound concentration 10.0 uM
T1 sequence (whole entry): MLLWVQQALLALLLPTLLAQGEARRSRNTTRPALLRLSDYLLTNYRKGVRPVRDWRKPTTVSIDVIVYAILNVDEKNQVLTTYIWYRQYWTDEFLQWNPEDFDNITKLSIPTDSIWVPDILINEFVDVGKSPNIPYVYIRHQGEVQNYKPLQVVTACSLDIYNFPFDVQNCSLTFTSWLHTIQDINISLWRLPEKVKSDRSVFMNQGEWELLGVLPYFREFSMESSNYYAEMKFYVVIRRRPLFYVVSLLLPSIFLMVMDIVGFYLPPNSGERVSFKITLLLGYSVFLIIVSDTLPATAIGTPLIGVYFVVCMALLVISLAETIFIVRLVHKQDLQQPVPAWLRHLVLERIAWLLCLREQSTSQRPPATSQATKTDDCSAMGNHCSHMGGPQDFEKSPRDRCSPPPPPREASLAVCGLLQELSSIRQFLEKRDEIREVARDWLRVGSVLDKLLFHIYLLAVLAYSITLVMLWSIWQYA

[5] = target: Adrenergic receptor alpha-1 (Homo sapiens) (UniProt P35348+P25100+P35368); assay: alpha1 (non-selective) Ligand binding assay; format: protein assay; conditions: Compound concentration 10.0 uM
[6] = target: Prostacyclin receptor (Homo sapiens) (UniProt P43119); assay: PGI2 (h) Ligand binding assay; conditions: Compound concentration 10.0 uM
[7] = target: T2, D(4) dopamine receptor (Homo sapiens) (UniProt P21917); assay: D4.4 (h) Ligand binding assay; conditions: Compound concentration 10.0 uM
T2 sequence (whole entry): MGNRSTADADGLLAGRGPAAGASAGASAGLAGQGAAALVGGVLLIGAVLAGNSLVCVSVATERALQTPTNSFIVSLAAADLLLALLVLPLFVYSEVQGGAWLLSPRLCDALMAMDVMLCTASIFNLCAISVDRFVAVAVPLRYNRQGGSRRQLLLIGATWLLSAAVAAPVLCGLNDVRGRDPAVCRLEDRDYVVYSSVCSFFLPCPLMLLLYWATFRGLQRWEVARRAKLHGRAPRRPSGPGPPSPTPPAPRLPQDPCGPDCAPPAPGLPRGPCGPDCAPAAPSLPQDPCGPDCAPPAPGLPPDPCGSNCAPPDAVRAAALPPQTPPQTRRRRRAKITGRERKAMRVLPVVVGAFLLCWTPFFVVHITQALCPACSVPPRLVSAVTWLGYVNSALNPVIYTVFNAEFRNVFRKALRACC

[8] = target: Sodium-dependent dopamine transporter (Homo sapiens) (UniProt Q01959); assay: DA uptake (h) Ligand binding assay
sodium channel (site 2) = sodium channel (site 2) (Homo sapiens, UniProt P35498+P35499+Q01118+Q14524+Q15858+Q99250+Q9NY46+Q9UI33+Q9UQD0+Q9Y5Y9); assay: Na+ channel (site 2) Ligand binding assay; format: protein assay
[9] = target: Calcitonin-gene-related peptide receptor, CALCRL/RAMP1 (Homo sapiens) (UniProt O60894+Q16602); assay: CGRP (h) Ligand binding assay; format: protein-complex assay; conditions: Compound concentration 10.0 uM
[10] = target: Calcium/calmodulin-dependent protein kinase type 1B (Homo sapiens, UniProt Q6P2M8); assay: Inhibition of PNCK at compound concentration of 10.0 uM using the ScanMax (DiscoverX)
[11] = target: Muscarinic acetylcholine receptor M2 (Homo sapiens) (UniProt P08172); assay: M2 (h) Ligand binding assay; conditions: Compound concentration 10.0 uM
Ephrin type-A receptor 1 = Ephrin type-A receptor 1 (Homo sapiens, UniProt P21709); assay: Inhibition of EPHA1 at compound concentration of 10.0 uM using the ScanMax (DiscoverX)
[12] = target: Translocator protein (Rattus norvegicus) (UniProt P16257); assay: BZD (peripheral) Ligand binding assay; conditions: Compound concentration 10.0 uM
[13] = tested on: Glutamate receptor ionotropic NMDA, PCP site (Homo sapiens); assay: PCP Ligand binding assay
[14] = target: Galanin receptor type 1 (Homo sapiens) (UniProt P47211); assay: GALI (h) Ligand binding assay; conditions: Compound concentration 10.0 uM
[15] = target: Platelet-derived growth factor receptor (Homo sapiens) (UniProt P09619+P16234); assay: PDGF Ligand binding assay; format: protein-complex assay; conditions: Compound concentration 10.0 uM
[16] = target: Beta-2 adrenergic receptor (Homo sapiens) (UniProt P07550); assay: beta2 (h) Ligand binding assay; conditions: Compound concentration 10.0 uM
[17] = target: 5-hydroxytryptamine receptor 6 (Homo sapiens) (UniProt P50406); assay: 5-HT6 (h) Ligand binding assay; conditions: Compound concentration 10.0 uM
Histamine H1 receptor = Histamine H1 receptor (Homo sapiens, UniProt P35367); assay: H1 (central) Ligand binding assay; conditions: Compound concentration 10.0 uM
[18] = target: Bombesin receptor (Homo sapiens) (UniProt P28336+P32247+P30550); assay: Bombesin Ligand binding assay; format: protein assay; conditions: Compound concentration 10.0 uM
[19] = Scintillation proximity assay (SPA); set-up: species or system Homo sapiens
[20] = target: T3, 5-hydroxytryptamine receptor 2C (Homo sapiens) (UniProt P28335); assay: 5-HT2C (h) Ligand binding assay; conditions: Compound concentration 10.0 uM
T3 sequence (whole entry): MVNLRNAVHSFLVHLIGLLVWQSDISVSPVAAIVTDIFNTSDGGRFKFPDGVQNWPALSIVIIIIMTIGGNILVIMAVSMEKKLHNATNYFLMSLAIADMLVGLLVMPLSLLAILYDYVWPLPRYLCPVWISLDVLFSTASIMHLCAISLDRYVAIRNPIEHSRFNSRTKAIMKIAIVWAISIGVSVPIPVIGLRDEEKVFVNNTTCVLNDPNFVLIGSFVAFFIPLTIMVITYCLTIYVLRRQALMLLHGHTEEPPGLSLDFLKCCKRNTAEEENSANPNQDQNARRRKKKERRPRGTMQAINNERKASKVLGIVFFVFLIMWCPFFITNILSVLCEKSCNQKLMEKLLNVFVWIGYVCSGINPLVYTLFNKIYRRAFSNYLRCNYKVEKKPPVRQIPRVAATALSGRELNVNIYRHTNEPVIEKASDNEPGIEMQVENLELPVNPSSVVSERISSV

[21] = target: GABA-A receptor; anion channel (Homo sapiens) (UniProt P14867+P47870+P18507+P28472+P48169+Q99928+Q9UN88+P34903+O00591+O14764+Q8N1C3+P18505+P78334+P47869+P31644+Q16445); assay: BZD (central) Ligand binding assay; format: protein-complex assay; conditions: Compound concentration 10.0 uM

Sequence of Sodium-dependent dopamine transporter (Homo sapiens) (Q01959 whole entry): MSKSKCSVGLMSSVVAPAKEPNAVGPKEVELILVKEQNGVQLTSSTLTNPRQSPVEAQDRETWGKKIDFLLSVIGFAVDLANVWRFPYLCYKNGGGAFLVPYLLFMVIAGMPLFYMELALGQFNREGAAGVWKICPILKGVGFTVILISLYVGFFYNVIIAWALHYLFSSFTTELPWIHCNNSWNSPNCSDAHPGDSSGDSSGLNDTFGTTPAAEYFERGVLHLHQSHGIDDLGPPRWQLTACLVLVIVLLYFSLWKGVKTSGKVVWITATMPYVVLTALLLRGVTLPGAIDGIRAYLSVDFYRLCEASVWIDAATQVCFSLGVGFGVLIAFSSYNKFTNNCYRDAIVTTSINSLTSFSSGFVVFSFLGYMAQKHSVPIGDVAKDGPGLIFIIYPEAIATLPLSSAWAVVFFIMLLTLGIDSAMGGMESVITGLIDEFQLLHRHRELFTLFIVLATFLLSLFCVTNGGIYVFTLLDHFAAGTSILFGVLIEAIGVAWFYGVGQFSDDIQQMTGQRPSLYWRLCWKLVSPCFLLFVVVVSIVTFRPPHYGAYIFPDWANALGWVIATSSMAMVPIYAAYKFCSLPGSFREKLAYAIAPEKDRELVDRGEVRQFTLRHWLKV
Sequence of Muscarinic acetylcholine receptor M2 (Homo sapiens) (P08172 whole entry): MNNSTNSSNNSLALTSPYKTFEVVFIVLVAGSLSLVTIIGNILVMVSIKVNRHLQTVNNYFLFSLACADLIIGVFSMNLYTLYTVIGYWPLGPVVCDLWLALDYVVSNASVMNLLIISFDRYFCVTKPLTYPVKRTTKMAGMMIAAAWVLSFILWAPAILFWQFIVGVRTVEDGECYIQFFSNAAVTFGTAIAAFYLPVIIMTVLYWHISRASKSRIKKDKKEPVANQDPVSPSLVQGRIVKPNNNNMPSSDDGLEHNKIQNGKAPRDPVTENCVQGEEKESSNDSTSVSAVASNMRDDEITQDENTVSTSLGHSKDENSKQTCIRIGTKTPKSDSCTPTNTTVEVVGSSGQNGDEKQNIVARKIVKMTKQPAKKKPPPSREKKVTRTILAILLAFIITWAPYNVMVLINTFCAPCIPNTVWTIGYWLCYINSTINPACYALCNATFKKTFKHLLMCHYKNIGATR
Sequence of Histamine H1 receptor (P35367 whole entry): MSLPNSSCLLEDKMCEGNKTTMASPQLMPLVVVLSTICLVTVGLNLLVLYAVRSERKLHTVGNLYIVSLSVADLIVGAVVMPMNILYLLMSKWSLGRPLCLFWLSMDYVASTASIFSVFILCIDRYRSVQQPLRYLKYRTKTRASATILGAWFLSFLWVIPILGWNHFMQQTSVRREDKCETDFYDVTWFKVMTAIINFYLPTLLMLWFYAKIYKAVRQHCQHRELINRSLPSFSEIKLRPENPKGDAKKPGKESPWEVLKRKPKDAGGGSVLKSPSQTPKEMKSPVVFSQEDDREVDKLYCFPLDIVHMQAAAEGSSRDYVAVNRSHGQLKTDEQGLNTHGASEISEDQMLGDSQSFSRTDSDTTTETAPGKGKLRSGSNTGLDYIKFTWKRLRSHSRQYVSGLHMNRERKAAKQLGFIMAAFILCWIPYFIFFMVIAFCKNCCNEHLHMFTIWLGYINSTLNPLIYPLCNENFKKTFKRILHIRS
Sequence of Mu-type opioid receptor (Homo sapiens) (P35372 whole entry): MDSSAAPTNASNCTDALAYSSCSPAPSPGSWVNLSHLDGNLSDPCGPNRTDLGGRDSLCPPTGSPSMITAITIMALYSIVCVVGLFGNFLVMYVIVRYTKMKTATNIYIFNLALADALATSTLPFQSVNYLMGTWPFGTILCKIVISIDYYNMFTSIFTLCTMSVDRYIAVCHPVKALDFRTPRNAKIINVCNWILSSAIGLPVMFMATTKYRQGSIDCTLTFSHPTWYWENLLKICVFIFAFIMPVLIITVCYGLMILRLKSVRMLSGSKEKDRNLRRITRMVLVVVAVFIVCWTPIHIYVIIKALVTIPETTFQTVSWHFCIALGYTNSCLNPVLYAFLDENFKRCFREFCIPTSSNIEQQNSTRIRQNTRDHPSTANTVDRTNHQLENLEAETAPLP
Sequence of 5-hydroxytryptamine receptor 6 (Homo sapiens) (P50406 whole entry): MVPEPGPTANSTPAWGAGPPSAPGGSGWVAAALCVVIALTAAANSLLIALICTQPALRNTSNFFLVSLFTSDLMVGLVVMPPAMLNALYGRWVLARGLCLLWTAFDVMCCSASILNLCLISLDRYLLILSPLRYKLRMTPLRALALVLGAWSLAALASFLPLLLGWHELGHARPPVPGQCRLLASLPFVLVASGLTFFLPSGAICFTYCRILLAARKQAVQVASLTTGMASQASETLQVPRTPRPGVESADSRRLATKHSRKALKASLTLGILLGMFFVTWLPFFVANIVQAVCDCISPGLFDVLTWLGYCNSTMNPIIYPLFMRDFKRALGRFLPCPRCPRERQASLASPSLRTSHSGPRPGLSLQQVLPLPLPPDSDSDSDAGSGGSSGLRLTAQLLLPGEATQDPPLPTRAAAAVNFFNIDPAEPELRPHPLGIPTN
Sequence of Bombesin receptor (Homo sapiens) (P28336 whole entry, looked up): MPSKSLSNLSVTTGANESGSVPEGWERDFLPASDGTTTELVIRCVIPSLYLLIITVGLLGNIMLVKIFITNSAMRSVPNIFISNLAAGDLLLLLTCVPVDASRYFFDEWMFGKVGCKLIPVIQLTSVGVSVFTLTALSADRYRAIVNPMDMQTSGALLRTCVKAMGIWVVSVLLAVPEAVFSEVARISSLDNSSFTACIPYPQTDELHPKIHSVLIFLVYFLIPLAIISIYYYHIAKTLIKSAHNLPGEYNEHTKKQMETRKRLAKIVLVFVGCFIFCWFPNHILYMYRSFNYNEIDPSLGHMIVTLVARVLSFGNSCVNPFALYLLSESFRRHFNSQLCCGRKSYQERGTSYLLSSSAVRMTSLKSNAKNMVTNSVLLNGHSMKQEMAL
Sequence of Bombesin receptor (Homo sapiens) (P30550 whole entry, looked up): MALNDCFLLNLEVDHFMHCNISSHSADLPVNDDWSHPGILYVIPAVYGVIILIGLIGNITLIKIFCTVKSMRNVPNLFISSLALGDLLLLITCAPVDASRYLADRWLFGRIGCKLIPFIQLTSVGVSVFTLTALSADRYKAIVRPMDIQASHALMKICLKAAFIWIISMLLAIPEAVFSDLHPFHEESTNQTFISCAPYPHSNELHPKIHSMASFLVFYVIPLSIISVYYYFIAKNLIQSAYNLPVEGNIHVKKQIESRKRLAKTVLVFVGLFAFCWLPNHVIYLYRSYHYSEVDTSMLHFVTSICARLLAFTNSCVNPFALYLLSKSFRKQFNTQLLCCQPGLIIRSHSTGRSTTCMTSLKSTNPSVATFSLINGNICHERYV
Sequence of Bombesin receptor (Homo sapiens) (P32247 whole entry, looked up): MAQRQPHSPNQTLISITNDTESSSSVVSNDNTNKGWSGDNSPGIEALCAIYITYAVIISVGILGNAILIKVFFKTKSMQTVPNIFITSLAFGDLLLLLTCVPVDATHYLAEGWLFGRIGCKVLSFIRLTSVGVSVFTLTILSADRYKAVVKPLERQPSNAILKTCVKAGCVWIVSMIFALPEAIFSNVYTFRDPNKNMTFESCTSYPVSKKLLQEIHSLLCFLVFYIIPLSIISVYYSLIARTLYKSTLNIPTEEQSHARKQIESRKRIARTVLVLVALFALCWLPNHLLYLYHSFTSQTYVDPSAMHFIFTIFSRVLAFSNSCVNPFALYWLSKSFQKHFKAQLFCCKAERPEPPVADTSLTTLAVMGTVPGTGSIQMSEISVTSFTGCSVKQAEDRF
Sequence of Calcium/calmodulin-dependent protein kinase type 1B (Q6P2M8 whole entry): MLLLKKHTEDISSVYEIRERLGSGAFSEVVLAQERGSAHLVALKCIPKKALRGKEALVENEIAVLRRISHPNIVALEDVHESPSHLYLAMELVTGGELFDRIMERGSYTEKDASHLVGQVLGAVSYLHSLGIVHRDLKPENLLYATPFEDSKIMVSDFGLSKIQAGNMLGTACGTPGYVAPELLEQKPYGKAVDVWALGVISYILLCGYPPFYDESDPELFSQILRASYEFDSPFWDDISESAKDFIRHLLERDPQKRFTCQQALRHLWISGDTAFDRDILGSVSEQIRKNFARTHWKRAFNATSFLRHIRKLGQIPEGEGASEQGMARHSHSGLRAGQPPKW
Sequence of Galanin receptor type 1 (Homo sapiens) (P47211 whole entry): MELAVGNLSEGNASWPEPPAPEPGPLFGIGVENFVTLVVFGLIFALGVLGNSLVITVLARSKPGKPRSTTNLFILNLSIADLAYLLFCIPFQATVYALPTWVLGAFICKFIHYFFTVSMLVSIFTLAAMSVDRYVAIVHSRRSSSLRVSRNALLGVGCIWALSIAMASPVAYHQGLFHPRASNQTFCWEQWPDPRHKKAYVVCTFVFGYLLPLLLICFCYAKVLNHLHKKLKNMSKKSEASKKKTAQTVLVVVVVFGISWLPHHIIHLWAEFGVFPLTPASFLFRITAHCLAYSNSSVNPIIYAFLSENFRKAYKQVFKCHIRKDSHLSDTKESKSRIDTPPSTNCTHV
Sequence of Prostacyclin receptor (Homo sapiens) (P43119 whole entry): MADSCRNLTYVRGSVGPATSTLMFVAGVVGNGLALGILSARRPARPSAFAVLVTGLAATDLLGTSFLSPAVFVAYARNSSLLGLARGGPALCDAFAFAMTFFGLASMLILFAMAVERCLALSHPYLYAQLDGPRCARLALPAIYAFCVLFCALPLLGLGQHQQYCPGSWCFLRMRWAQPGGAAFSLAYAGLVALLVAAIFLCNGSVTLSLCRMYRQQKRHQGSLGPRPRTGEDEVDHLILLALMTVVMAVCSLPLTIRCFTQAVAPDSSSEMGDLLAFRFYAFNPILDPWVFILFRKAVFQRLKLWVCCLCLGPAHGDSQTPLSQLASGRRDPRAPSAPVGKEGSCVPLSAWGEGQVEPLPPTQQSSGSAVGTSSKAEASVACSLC
Sequence of Translocator protein (Rattus norvegicus) (P16257 whole entry, looked up): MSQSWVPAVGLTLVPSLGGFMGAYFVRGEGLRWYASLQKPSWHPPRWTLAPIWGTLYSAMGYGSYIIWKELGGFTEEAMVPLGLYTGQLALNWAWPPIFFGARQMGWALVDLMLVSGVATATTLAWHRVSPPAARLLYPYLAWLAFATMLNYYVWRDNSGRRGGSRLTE

Question: Which inhibition [1] does the source give for `Cn1cncc1[C@](O)(COc1ccc(C#N)cc1-c1ccc(OC(F)(F)F)cc1)c1ccc(C#N)cc1` [ABT-100] here?
Answer: -1.19%

Question: And the inhibition [2]?
Answer: 18%

Question: What about the inhibition [3] of the same compound?
Answer: < 10%

Question: What about the inhibition [4] of the same compound?
Answer: 12%

Question: What about the inhibition [5] of the same compound?
Answer: < 10%

Question: What about the inhibition [6] of the same compound?
Answer: < 10%

Question: What about the inhibition [7] of the same compound?
Answer: < 10%

Question: What about the inhibition ([8]; Compound concentration 1.0 uM) of the same compound?
Answer: 21%

Question: And the inhibition ([8]; Compound concentration 3.0 uM)?
Answer: 41%

Question: And the inhibition ([8]; Compound concentration 10.0 uM)?
Answer: 75%

Question: And the inhibition at 0.3 µM (sodium channel (site 2); compound concentration 0.3 uM)?
Answer: 15% (not active)

Question: And the inhibition at 1 µM (sodium channel (site 2); compound concentration 1 uM)?
Answer: 10% (not active)

Question: And the inhibition at 3 µM (sodium channel (site 2); compound concentration 3 uM)?
Answer: 22% (not active)

Question: And the inhibition at 10 µM (sodium channel (site 2); compound concentration 10 uM)?
Answer: 58%

Question: What about the inhibition [9] of the same compound?
Answer: < 10%

Question: And the Kd [10]?
Answer: > 10 µM (not active)

Question: What about the inhibition [11] of the same compound?
Answer: < 10%

Question: What about the Kd (Ephrin type-A receptor 1) of the same compound?
Answer: > 10 µM (not active)

Question: What about the inhibition [12] of the same compound?
Answer: 36%

Question: And the inhibition ([13]; Compound concentration 0.3 uM)?
Answer: 14%

Question: What about the inhibition ([13]; Compound concentration 1.0 uM) of the same compound?
Answer: 75%

Question: What about the inhibition ([13]; Compound concentration 3.0 uM) of the same compound?
Answer: 97%

Question: And the inhibition ([13]; Compound concentration 10.0 uM)?
Answer: 100%

Question: And the inhibition [14]?
Answer: < 10%

Question: And the inhibition [15]?
Answer: < 10%

Question: What about the inhibition [16] of the same compound?
Answer: 10%

Question: And the inhibition [17]?
Answer: < 10%

Question: What about the inhibition (Histamine H1 receptor) of the same compound?
Answer: < 10%

Question: What about the inhibition [18] of the same compound?
Answer: < 10%

Question: And the IC50 [19]?
Answer: 0.05 nM (active)

Question: What about the inhibition [20] of the same compound?
Answer: < 10%

Question: And the inhibition [21]?
Answer: < 10%
